In patent US20230160878A1, “METHOD OF SCREENING A THERAPY FOR INDUCTION OF FERROPTOSIS” (priority 2020, published 2023):

Assays:
[1] = test system: HMOX1; assay: RT-qPCR of HMOX1 expression in HT-1080 cells; type: cell-based; details: for HMOX1 induction with versus without ferrostatin-1: HT-1080, sodium arsenite 80 μM, hemin 5 μM, RSL3 1 μM, with or without 1 μM ferrostatin-1, four hours, normalized to DMSO
Procedure: (§1) To confirm HMOX1 induction by the GPX4 inhibitors, an RT-qPCR assay was performed using three ferroptosis sensitive cancer cell lines: the fibrosarcoma cell line HT-1080, a Ewing's sarcoma cell line A673, and a renal clear cell carcinoma cell line 786-O. Briefly, cells were exposed to 1 μM ML162 or 1 μM RSL3 for 4 hours, RNA was isolated and an RT-qPCR assay was performed.
To further validate induction of HMOX1 mRNA expression by GPX4 inhibition, RT-qPCR was performed using varying doses of the RSL3 inhibitor. Briefly, HT-1080 cells were exposed to 5 μM RSL3, 1 μM RSL3, and 0.2 μM RSL3 for four hours, RNA was isolated and an RT-qPCR assay was performed to quantify HMOX1 expression. DMSO was used as a control exposure.
(§2) Briefly, HT-1080, A673, and 786-O cells were exposed to 1 μM ML162 or 1 μM RLS3 with or without 1 μM ferrostatin-1 for four hours, RNA was isolated and an RT-qPCR assay was performed to quantify HMOX1 expression. DMSO was used as a control exposure.
Sodium arsenite and hemin are known to be inducers of general oxidative stress in cells. Briefly, HT-1080 cells were exposed to sodium arsenite (80 μM), hemin (5 μM), ML162 (1 μM), or RSL3 (1 μM) with or without 1 μM ferrostatin-1 for four hours, RNA was isolated and an RT-qPCR assay was performed to quantify HMOX1 expression. DMSO was used as a control exposure.

[2] = test system: HMOX1; assay: RT-qPCR of HMOX1 expression in A673 cells; type: cell-based; details: A673, 1 μM; for relative expression of HMOX1 in absence of ferrostatin-1: four hours, relative to ACTB
Procedure: as §1, §2

[3] = test system: HMOX1; assay: nascent RNA sequencing, transcriptional response to GPX4 inhibitors, HT-1080; type: cell-based; details: HT-1080, 1 μM, 1 hour
Procedure: (§3) To assess the transcriptional response of a cell to inhibition of GPX4, we exposed two cell lines to two different chemical inhibitors of GPX4 (ML162 and RSL3; available from Sigma Aldrich and Apex Bio respectively) and examined the transcriptional responses using a nascent RNA sequencing protocol. Briefly, a fibrosarcoma cell line HT-1080 and a lung fibroblast cell line IMR90 were exposed to 1 μM ML162 or 1 μM RSL3 for 1 hour and the nascent RNA sequencing protocol was performed.

[4] = test system: HMOX1; assay: nascent RNA sequencing, transcriptional response to GPX4 inhibitors, IMR90; type: cell-based; details: IMR90, 1 μM, 1 hour
Procedure: as §3

[5] = test system: HMOX1; assay: RT-qPCR of HMOX1 expression in 786-O cells; type: cell-based; details: 1 μM; for relative expression of HMOX1 in absence of ferrostatin-1: four hours, relative to ACTB
Procedure: as §1, §2

[6] = test system: HT-1080, A673, and 786-O cells lines; details: ferrostatin-1 added to culture media; HT-1080, A673, 786-O; cited from earlier work
[7] = test system: HMOX1; assay: RT-qPCR rescue of GPX4 inhibitor-mediated HMOX1 induction by ferrostatin-1 (HT-1080, A673 and 786-O pooled statement); type: cell-based; details: 1 μM ferrostatin-1 with 1 μM ML162 or RSL3, HT-1080, A673, 786-O, four hours
Procedure: as §2

[8] = 4 hours, normalized to DMSO control, n=2
[9] = HT-1080, 1 μM, four hours, relative to ACTB

Compound | HMOX1 induction with versus without ferrostatin-1 [1] | relative expression of HMOX1 in absence of ferrostatin-1 [2] | relative expression of HMOX1 in absence of ferrostatin-1 [1, 9] | HMOX1 differential expression (nascent transcription) [3] | HMOX1 differential expression (nascent transcription) [4] | relative expression of HMOX1 in absence of ferrostatin-1 [5] | further results
hemin | not affected by the presence of ferrostatin-1 | – | – | – | – | – | –
COC(=O)c1ccc([C@@H]2c3[nH]c4ccccc4c3C[C@@H](C(=O)OC)N2C(=O)CCl)cc1 [RSL3] | dependent on lipid peroxidation | HMOX1 expression was observed | HMOX1 expression was observed | strongly differentially expressed | strongly differentially expressed | HMOX1 expression was observed | fold induction for HMOX1 mRNA [2, 8]: induced; fold induction for HMOX1 mRNA ([1]; HT-1080, 1 μM, 4 hours, normalized to DMSO control, n=2): induced; relative expression level of HMOX1, dose dependence ([1]; HT-1080, 5 μM, 1 μM and 0.2 μM, four hours, relative to ACTB): proportional to the dose; fold induction for HMOX1 mRNA [5, 8]: induced
CCOC(=O)c1ccc(NC2CCCCC2)c(N)c1 [ferrostatin-1] | – | – | – | – | – | – | cellular viability of cells treated with small molecules that induce lipid peroxidation [6]: rescues cellular viability; effect of ferrostatin-1 on HMOX1 induction by GPX4 inhibitors [7]: sufficient to prevent induction of HMOX1 in most conditions
O=[As]O [sodium arsenite] | not affected by the presence of ferrostatin-1 | – | – | – | – | – | –
COc1ccc(N(C(=O)CCl)C(C(=O)NCCc2ccccc2)c2cccs2)cc1Cl (centres unmarked) [ML162] | – | HMOX1 expression was observed | HMOX1 expression was observed | strongly differentially expressed | strongly differentially expressed | HMOX1 expression was observed | relative expression of HMOX1 in presence of ferrostatin-1 ([1]; HT-1080, 1 μM with 1 μM ferrostatin-1, four hours, relative to ACTB): induced HMOX1 even in the presence of ferrostatin-1
